Activity calls are given as the source filed them.
Key:
[1] = target: T1, Intestinal-type alkaline phosphatase (Homo sapiens, UniProt P09923); assay: human intestinal alkaline phosphatase activators, dose response, biochemical, luminescence, uHTS hits (AID 463120); format: functional
[2] = target: T1, Intestinal-type alkaline phosphatase; assay: human IAP activators, dose response, biochemical, luminescent, uHTS hits, set 2 (AID 488817); format: functional;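 further: potency of activators that raise enzyme activity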
[3] = target: Intestinal-type alkaline phosphatase (Mus musculus, UniProt P24822); assay: PubChem AID 488874; format: functional
Intestinal-type alkaline phosphatase (Mus musculus, UniProt P24822), sequence (P24822 whole entry): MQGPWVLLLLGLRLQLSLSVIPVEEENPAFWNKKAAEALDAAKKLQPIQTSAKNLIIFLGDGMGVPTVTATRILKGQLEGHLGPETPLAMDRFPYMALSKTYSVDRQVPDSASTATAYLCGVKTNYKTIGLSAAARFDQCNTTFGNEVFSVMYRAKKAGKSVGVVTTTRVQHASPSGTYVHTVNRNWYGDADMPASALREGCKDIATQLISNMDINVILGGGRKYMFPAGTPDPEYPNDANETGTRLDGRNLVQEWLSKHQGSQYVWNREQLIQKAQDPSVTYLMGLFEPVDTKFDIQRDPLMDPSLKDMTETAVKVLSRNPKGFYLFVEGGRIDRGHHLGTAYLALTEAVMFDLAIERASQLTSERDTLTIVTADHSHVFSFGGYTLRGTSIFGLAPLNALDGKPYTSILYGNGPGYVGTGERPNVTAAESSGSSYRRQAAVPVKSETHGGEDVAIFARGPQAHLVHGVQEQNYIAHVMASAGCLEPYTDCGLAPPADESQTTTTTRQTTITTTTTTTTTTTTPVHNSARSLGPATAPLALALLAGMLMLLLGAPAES

[4] = target: T2, Alkaline phosphatase, tissue-nonspecific isozyme (Homo sapiens, UniProt P05186); assay: TNAP enzyme activators, dose response, selectivity assay for human IAP activator project, biochemical, TNAP isozyme, human IAP uHTS hits (AID 488886); format: functional;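 further: potency of compounds raising TNAP activity as a selectivity check on IAP activators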
T2 sequence (P05186 whole entry): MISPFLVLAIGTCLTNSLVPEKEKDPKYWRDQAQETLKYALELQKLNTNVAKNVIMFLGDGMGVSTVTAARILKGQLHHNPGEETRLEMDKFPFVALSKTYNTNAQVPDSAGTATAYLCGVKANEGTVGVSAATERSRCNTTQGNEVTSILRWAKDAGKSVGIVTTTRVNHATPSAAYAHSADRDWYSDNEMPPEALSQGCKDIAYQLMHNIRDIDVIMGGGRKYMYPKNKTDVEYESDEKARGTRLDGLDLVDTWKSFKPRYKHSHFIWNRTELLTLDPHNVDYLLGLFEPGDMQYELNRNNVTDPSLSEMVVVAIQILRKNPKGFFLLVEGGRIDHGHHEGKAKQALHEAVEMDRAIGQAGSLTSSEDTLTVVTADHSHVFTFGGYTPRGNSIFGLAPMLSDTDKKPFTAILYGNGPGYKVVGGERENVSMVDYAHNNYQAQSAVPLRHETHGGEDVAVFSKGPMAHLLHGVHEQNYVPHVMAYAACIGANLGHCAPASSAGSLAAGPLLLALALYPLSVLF

[5] = target: Albumin (Bos taurus, UniProt P02769); assay: Counterscreen for inhibitors of T-cell receptor (TCR)-CD3 interaction: Fluorescence-based biochemical high throughput dose response assay to identify inhibitors of T-cell receptor (TCR)-CD3 interaction using a TAMRA-labeled BSA probe.; format: functional
Albumin, sequence (P02769 whole entry): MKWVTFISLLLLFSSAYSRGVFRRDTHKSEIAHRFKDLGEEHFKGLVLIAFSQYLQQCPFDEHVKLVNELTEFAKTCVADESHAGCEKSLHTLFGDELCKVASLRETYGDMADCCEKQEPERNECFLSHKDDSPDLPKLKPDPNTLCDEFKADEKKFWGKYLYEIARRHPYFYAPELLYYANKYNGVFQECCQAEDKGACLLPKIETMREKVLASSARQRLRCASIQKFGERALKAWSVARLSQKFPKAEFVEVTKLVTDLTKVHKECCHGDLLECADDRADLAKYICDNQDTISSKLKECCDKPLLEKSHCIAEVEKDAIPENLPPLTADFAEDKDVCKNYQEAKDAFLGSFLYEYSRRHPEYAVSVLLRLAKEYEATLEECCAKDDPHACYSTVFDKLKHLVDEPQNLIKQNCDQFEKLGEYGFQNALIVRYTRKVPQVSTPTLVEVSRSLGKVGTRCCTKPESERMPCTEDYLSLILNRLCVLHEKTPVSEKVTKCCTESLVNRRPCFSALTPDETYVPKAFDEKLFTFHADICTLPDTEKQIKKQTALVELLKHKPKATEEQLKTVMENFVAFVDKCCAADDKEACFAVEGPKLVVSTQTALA

[6] = Counterscreen for AddAB inhibitors: absorbance-based bacterial cell-based high throughput dose response assay for inhibitors of bacterial viability. [Related pubchem assays (depositor defined):AID435030, AID449728, AID449731, AID488942, AID488955, AID488956]; format: functional
[7] = target: T3, Exodeoxyribonuclease V (Escherichia coli (strain K12), UniProt P04993+P07648+P08394); assay: E. coli RecBCD inhibitors, dose response, counter-screen for AddAB inhibitor project, absorbance, V66 E. coli, mutant T4 phage (AID 492957); format: functional, cell-based, Escherichia coli str. K-12 substr. MG1655
T3 sequence (P04993 whole entry): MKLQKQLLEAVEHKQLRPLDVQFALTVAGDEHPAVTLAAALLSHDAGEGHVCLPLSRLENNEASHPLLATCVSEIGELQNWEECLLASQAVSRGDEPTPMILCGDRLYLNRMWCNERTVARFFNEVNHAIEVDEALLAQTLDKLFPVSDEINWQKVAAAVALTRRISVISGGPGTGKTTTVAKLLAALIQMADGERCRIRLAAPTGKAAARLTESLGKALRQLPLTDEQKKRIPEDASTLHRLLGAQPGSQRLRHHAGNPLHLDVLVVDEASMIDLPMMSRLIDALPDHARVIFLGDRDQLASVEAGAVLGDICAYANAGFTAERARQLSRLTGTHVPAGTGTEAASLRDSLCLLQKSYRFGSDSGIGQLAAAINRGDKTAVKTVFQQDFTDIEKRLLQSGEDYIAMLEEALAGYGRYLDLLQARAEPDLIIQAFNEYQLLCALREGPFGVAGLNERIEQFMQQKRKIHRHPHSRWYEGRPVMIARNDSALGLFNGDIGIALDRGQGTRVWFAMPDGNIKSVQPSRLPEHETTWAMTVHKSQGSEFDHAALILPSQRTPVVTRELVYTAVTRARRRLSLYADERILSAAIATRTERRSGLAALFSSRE
T3 sequence (P07648 whole entry): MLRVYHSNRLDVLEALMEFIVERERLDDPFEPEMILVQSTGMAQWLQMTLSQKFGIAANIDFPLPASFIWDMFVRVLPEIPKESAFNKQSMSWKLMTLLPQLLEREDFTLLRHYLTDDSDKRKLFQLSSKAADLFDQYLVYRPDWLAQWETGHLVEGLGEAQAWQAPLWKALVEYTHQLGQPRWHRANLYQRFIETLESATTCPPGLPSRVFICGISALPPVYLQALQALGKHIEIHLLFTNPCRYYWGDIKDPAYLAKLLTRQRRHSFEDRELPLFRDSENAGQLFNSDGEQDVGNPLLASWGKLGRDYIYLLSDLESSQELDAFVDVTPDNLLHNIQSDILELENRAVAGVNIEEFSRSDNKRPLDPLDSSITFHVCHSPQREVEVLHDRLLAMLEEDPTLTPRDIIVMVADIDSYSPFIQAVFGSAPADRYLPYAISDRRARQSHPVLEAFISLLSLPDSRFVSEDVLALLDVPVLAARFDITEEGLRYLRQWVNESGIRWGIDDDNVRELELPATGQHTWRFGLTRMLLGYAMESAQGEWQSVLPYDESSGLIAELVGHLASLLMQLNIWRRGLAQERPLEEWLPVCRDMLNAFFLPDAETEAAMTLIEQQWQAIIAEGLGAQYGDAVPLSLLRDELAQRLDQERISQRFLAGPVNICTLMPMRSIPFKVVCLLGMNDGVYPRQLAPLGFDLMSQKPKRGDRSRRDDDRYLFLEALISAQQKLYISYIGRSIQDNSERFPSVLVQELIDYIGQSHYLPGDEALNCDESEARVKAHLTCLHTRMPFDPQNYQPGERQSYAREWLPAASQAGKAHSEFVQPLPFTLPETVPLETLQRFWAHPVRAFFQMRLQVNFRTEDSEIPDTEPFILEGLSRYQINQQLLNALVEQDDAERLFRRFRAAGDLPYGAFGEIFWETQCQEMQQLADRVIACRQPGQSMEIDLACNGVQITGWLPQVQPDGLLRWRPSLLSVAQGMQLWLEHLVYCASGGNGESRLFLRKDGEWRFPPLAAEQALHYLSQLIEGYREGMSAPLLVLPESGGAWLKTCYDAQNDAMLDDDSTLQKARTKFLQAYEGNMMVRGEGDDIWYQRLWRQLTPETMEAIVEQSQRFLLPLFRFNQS
T3 sequence (P08394 whole entry): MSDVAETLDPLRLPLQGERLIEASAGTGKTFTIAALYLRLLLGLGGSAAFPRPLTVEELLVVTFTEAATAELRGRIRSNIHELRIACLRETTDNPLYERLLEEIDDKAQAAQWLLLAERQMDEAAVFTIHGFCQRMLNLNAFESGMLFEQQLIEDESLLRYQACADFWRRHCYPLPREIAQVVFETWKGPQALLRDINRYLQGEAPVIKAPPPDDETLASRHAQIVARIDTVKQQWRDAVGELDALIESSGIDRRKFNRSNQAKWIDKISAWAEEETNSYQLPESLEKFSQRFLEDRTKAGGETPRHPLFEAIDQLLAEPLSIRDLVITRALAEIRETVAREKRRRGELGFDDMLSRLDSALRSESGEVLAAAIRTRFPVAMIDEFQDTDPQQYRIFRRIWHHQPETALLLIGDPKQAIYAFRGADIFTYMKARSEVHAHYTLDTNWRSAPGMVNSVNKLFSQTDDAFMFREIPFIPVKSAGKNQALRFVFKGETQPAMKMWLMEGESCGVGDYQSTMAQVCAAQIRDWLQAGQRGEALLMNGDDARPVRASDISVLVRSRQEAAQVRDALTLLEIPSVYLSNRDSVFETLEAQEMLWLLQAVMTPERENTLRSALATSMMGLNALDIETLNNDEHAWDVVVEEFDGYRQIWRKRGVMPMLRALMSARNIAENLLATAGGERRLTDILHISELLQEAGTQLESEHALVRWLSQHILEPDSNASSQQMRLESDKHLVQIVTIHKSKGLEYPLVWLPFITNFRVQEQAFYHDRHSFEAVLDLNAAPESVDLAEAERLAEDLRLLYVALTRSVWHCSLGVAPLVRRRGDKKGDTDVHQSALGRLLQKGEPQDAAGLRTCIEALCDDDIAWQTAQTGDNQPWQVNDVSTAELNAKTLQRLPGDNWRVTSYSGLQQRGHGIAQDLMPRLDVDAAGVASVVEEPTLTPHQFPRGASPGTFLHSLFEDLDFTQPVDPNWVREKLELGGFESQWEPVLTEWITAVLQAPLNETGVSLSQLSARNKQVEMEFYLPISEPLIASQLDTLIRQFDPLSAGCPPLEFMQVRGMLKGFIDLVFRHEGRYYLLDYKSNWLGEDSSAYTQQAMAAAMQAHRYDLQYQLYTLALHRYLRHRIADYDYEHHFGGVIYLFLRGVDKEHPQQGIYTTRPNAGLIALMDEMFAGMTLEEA

[8] = C. albicans growth with fluconazole, confirmation, fluorescence, retest (AID 2467); format: functional, cell-based
[9] = Luminescence Cell-Based Dose Retest to Confirm Inhibitors of Cancer Stem Cells. [Related pubchem assays (depositor defined):AID2717, AID2721]; format: functional; details: Homo sapiens
[10] = NIH-3T3 fibroblast cytotoxicity, dose response, cytotoxicity control, cell-based, fluorescence, Alamar Blue, secondary assay (AID 2327); format: functional;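 further: NIH-3T3 mouse fibroblasts cultured with fluconazole at 8 µg/mL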
[11] = target: T4, RNA-binding protein pos-1 (Caenorhabditis elegans, UniProt G5EF15); assay: inhibitors of POS-1/mex-3 RNA binding, dose response, biochemical, fluorescence polarization (AID 1964);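 further: purified POS-1 fused to maltose binding protein made in E. coli; potency of compounds blocking POS-1 binding to fluorescent RNA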
T4 sequence (G5EF15 whole entry): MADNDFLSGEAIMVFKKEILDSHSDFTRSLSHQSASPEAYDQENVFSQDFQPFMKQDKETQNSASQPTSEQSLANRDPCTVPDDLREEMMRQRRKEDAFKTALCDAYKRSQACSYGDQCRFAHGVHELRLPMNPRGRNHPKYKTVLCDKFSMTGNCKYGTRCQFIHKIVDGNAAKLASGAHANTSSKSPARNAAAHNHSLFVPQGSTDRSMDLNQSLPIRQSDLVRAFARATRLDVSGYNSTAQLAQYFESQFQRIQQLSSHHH

[12] = target: T5, Zinc finger protein mex-5 (Caenorhabditis elegans, UniProt Q9XUB2); assay: MEX-5/TCR-2 RNA interaction inhibitors, dose response, biochemical, C. elegans, fluorescence polarization (AID 1960)
T5 sequence (Q9XUB2 whole entry): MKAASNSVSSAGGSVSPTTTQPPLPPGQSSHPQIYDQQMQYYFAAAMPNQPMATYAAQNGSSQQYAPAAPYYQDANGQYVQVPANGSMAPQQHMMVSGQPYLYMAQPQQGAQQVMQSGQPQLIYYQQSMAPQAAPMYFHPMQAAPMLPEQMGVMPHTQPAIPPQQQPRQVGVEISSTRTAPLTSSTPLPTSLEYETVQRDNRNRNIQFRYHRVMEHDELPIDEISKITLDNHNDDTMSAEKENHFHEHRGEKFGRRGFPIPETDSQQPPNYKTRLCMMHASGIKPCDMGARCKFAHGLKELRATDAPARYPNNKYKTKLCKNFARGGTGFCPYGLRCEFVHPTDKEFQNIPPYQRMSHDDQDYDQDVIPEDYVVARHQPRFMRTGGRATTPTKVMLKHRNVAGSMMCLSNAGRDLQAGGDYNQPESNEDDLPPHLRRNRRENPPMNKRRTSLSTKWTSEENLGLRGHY

[13] = target: T6, Mannose-6-phosphate isomerase (Homo sapiens, UniProt P34949); assay: PMI enzyme inhibitors, confirmation, biochemical, fluorescence intensity (AID 1535)
T6 sequence (P34949 whole entry): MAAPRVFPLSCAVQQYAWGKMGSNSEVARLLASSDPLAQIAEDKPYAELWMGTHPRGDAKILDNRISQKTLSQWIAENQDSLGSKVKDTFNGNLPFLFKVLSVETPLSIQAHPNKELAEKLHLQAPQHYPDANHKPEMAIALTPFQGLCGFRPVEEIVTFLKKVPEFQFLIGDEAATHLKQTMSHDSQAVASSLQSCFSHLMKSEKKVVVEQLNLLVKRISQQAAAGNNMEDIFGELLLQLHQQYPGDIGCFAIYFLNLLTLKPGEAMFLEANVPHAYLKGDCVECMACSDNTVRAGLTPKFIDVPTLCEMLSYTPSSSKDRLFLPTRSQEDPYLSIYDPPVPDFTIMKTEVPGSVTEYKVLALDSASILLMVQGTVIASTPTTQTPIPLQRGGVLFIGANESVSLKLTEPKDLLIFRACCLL

[14] = target: T7, Phosphomannomutase 2 (Homo sapiens, UniProt O15305); assay: Counter screen SAR assay for PMM2 inhibitors via a fluorescence intensity assay. [Related pubchem assays (depositor defined):AID1545, AID1574]
T7 sequence (O15305 whole entry): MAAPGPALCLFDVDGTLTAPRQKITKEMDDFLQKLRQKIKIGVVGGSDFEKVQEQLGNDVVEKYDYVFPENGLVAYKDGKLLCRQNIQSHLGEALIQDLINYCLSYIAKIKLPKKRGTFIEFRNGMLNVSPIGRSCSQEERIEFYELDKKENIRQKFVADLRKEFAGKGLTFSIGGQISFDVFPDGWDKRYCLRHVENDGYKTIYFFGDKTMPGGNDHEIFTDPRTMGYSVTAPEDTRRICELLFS
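Wherever AC50 is given: cells exposed to compound for roughly 70 hours or longer before luminescence read.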

T1 sequence (P09923 whole entry): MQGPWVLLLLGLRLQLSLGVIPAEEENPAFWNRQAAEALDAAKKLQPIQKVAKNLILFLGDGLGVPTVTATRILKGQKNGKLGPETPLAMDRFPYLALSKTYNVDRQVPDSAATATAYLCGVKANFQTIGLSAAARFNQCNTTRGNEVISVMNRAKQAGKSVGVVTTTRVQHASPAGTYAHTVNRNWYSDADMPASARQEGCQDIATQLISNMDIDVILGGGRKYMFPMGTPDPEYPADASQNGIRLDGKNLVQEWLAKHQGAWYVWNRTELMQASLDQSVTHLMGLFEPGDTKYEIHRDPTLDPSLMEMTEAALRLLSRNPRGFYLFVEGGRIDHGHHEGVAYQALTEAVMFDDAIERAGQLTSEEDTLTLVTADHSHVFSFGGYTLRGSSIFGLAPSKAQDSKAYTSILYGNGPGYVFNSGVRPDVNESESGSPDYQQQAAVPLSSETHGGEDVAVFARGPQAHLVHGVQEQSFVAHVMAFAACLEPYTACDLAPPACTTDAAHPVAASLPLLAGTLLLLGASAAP

| Structure (SMILES) | EC50 [1] | EC50 [2] | IC50 [3] | EC50 [4] | IC50 [6] | IC50 [7] | IC50 [13] | further results |
| --- | --- | --- | --- | --- | --- | --- | --- | --- |
| O=Nc1nc(O)c(/C=C(\O)c2ccccc2)nc1NO | 8.21 µM (active) | 8.77 µM (active) | 35.5 µM (active) | > 100 µM (inactive) |  |  |  | IC50 [5]: > 94.2 µM (inactive) |
| CCNc1c([N+](=O)[O-])c(=O)oc2ccccc12 |  |  |  |  | > 119 µM (inactive) | > 119 µM (inactive) |  |  |
| O=C1c2ccccc2NC(c2ccc(-c3cccc(Cl)c3)o2)N1O (stereo unspecified) |  |  |  |  | > 119 µM (inactive) | > 119 µM (inactive) |  | EC50 [8]: 1.91 µM (active); AC50 [9]: 4.45 µM (active); EC50 [10]: 33.4 µM (active) |
| Cc1nc2c3ccccc3nc(NNC(=O)CCC(=O)N3CCCC(C)C3)n2n1 (stereo unspecified) | 8.07 µM (active) | 10.7 µM (active) | 64.2 µM (active) | 12.2 µM (active) |  |  |  | EC50 [11]: > 300 µM (not active); EC50 [12]: 21 µM (active) |
| Clc1nss/c1=N\c1ccccn1 |  |  |  |  |  |  | > 100 µM (inactive) |  |
| Cc1ccc(/N=c2\ssnc2Cl)cc1C |  |  |  |  |  |  | 26.1 µM (active) | IC50 [14]: 95.4 µM (active) |

Source: ChEMBL document CHEMBL1201862, “PubChem BioAssay data set” (2004)
